Assay results reported in patent EP4721767A1 (priority 2023, dated 2024).

How the values were obtained:
Format in all cases: cell-based
SK-OV-3 = assay: Proliferation-inhibiting effect on tumor cells (SRB / MTT); details: Homo sapiens; SK-OV-3, 144 hours; read-out: IC50 (nM, mean ± SD)
Protocol: (§1) For cells growing by adherence, SRB assay was used to detect effect of antibody-drug conjugates, antibodies, or camptothecins on the proliferation of tumor cells in vitro cultured. A certain number of cells in exponential growth phase were inoculated in 96-well cell culture plates, and when the cells grew by adherence overnight, antibody drug conjugates, antibodies, or camptothecins of different concentrations were added into the cells. 144 hours of incubation later, the cells were fixed with trichloroacetic acid, and then stained with SRB (prepared in 1% glacial acetic acid at a concentration of 4 mg/mL). 10 mM Tris solution was added into each well to solubilize the bound SRB. OD values at 510 nm were read on a microplate reader. [formula]
(§2) For cells growing in suspension, MTT assay was used to detect effect of antibody-drug conjugates, antibodies, or camptothecins on the proliferation of tumor cells in vitro cultured. A certain number of cells in exponential growth phase were inoculated in 96-well cell culture plates, and when the cells grew in suspension overnight, antibody-drug conjugates, antibodies, or camptothecins of different concentrations were added into the cells. 144 hours of incubation later, MTT was added to each well of the plates, and the incubation was continued for 4 hours at 37 °C in a 5% CO2 saturated humidity incubator. Next, 100 µL of SDS-isobutanol-HCl solution was added into each well of the plates, and OD values at 570 nm and 690 nm were read on a microplate reader.
(§3) Half maximal inhibitory concentration (IC50) was calculated from the inhibition (%) at those different concentrations using the software Graphpad Prism 8.0. The experiment was repeated once and the data was expressed as mean ± SD, and a plot of log(concentration) versus inhibition was generated. Table 10. Results of the proliferation-inhibiting effect of ADCs targeting B7-H3 on different tumor cells

MC38/B7H3 = assay: as above; details: Mus musculus, MC-38; MC38/B7H3, 144 hours; read-out: IC50 (nM, mean ± SD)
Protocol: as §1, §2, §3

Calu-6 = assay: as above; details: Homo sapiens; Calu-6, 144 hours; read-out: IC50 (nM, mean ± SD)
Protocol: as §1, §2, §3

ES-2 = assay: as above; details: Homo sapiens; ES-2, 144 hours; read-out: IC50 (nM, mean ± SD)
Protocol: as §1, §2, §3

HT-29 = assay: as above; details: Homo sapiens; HT-29, 144 hours; read-out: IC50 (nM, mean ± SD)
Protocol: as §1, §2, §3

BxPC-3 = assay: as above; details: Homo sapiens; BxPC-3, 144 hours; read-out: IC50 (nM, mean ± SD)
Protocol: as §1, §2, §3

HCT-116 = assay: as above; details: Homo sapiens; HCT-116, 144 hours; read-out: IC50 (nM, mean ± SD)
Protocol: as §1, §2, §3

MC38 = assay: as above; details: Mus musculus, MC-38; MC38, 144 hours; read-out: IC50 (nM, mean ± SD)
Protocol: as §1, §2, §3

U-87 MG = assay: as above; details: Homo sapiens, 144 hours, read-out: IC50 (nM, mean ± SD)
Protocol: as §1, §2, §3

PANC 05.04 = assay: as above; details: Homo sapiens; PANC 05.04, 144 hours; read-out: IC50 (nM, mean ± SD)
Protocol: as §1, §2, §3

Calu-3 = assay: as above; details: Homo sapiens; Calu-3, 144 hours; read-out: IC50 (nM, mean ± SD)
Protocol: as §1, §2, §3

PANC-1 = assay: as above; details: Homo sapiens; PANC-1, 144 hours; read-out: IC50 (nM, mean ± SD)
Protocol: as §1, §2, §3

SW626 = assay: as above; details: Homo sapiens; SW626, 144 hours; read-out: IC50 (nM, mean ± SD)
Protocol: as §1, §2, §3

NCI-N87 = assay: as above; details: Homo sapiens; NCI-N87, 144 hours; read-out: IC50 (nM, mean ± SD)
Protocol: as §1, §2, §3

MDA-MB-231 = assay: as above; details: Homo sapiens; MDA-MB-231, 144 hours; read-out: IC50 (nM, mean ± SD)
Protocol: as §1, §2, §3

MDA-MB-468 = assay: as above; details: Homo sapiens; MDA-MB-468, 144 hours; read-out: IC50 (nM, mean ± SD)
Protocol: as §1, §2, §3

[1] = test system: HT29 human colon cancer cells; assay: Cell killing activity of camptothecins (CCK-8); details: HT29, killing 4 days
Protocol: (§4) KB oral epithelial cancer cells (purchased from: ATCC) were cultured in DMEM medium supplemented with 10% FBS; NCI-N87 human gastric cancer cells (purchased from: ATCC) were cultured in RPMI1640 medium supplemented with 10% FBS; HT29 human colon cancer cells (purchased from: ATCC) were cultured in RPMI1640 medium supplemented with 10% FBS; and BxPC-3 human pancreatic adenocarcinoma cells (purchased from: ATCC) were cultured in RPMI1640 medium supplemented with 10% FBS.
(§5) Using corresponding media described above and in cell plates, the density of KB cells was adjusted to 2×10^4/mL; the density of NCI-N87 cells was adjusted to 5×10^4/mL; the density of HT29 cells was adjusted to 5×10^4/mL, and the cells were plated onto 96-well transparent flat bottom plates, at 100 µL/well, and cultured overnight; and the density of BxPC-3 cells was adjusted to 5×10^4/mL.
(§6) Samples to be detected were diluted to 20 µM with corresponding media, then 5-fold gradient dilution was performed, and 9 concentrations were obtained. A well having cells but with no any sample added was set as the well showing maximum cell growth; and a well having no cells was set as the well of medium background. The diluted samples were added into the cell plates, at 100 µL/well, which were then incubated in a CO2 incubator for 96 hours. After the incubation, CCK-8 (purchased from: DOJINDO LABORATORIES) prepared beforehand was added into the plates, at 20 µL/well, and after further 3 hours of incubation in the CO2 incubator, OD values at 450 nm were read on a microplate reader.
(§7) Data obtained was fitted to a four-parameter curve using software Prism7, and equation for calculating maximum killing is: maximum killing (%) = 1 - (OD450 value of the well showing maximum killing - OD450 value of the well of medium background) / (OD450 value of the well showing maximum cell growth - OD450 value of the cell of medium background) × 100%. Table 6. Results of comparative study on the activity of camptothecins

[2] = test system: KB oral epithelial cancer cells; assay: Cell killing activity of camptothecins (CCK-8); details: killing 4 days
Protocol: as §4, §5, §6, §7

CC[C@@]1(O)C(=O)OCc2c1cc1n(c2=O)Cc2c-1nc1ccc(N)c3c1c2C(F)(F)CC3 [Compound 3]
IC50 (SK-OV-3): 1.05 ± 0.48 nM
IC50 (MC38/B7H3): 4.67 ± 1.98 nM
IC50 (Calu-6): 0.25 ± 0.06 nM
IC50 (ES-2): 0.21 ± 0.08 nM
IC50 (HT-29): 0.62 nM
IC50 (BxPC-3): 0.26 ± 0.09 nM
IC50 (HCT-116): 0.3 nM
IC50 (MC38): 3.27 ± 0.75 nM
IC50 (U-87 MG): 3.72 ± 0.01 nM
IC50 (PANC 05.04): 0.35 ± 0.19 nM
IC50 (Calu-3): 0.44 ± 0.1 nM
IC50 (PANC-1): 0.82 ± 0.16 nM
IC50 (SW626): 3.08 ± 0.63 nM
IC50 (NCI-N87): 1.26 ± 0.13 nM
IC50 (MDA-MB-231): 0.59 ± 0.03 nM
IC50 (MDA-MB-468): 0.21 ± 0.11 nM
Maximum Killing (%) [1]: 90.6%
EC50 ([1]; Homo sapiens, HT-29, 96 h): 6040 pM
EC50 ([2]; 96 h): 7470 pM
Maximum Killing (%) [2]: 95.6%
